Measurements: patent US20170008888A1 (KYORIN PHARMACEUTICAL CO., LTD., priority 2014, published 2017)
Like-named read-outs stand apart in the source and are kept apart here. Values belong to the compound of their own block, whether it stands above or below them.

Tests used:
Type in all cases: binding
AurA = target: T1, AurA (Homo sapiens, UniProt O14965); assay: Probe-based (AX9989) kinase profiling in Jurkat lysate: AurA; conditions: for inhibition at 0.1 µM: screening concentration 0.1 μM
T1 construct: screened for activity against several kinases in Jurkat cells; endogenous in cells; host or cells: Jurkat cell lysate
T1 sequence (O14965 1-403): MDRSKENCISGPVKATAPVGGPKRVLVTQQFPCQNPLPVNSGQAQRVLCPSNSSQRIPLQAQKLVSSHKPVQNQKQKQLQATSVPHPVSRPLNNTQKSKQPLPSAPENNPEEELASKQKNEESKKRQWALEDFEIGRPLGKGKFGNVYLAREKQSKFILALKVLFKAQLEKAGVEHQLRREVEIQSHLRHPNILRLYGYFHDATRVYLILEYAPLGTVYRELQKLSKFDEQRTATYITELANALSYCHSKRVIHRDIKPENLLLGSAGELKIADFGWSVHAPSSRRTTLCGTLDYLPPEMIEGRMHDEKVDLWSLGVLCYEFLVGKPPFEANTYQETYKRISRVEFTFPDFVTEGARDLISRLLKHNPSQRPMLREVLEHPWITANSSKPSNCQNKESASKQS
How it was run: (§1)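 Percent inhibition was derived from reduced LC/MS fragment intensities of probe-labeled peptides relative to compound-free controls. Before labeling with 5 μM AX9989, Mn2+-supplemented (20 mM) Jurkat lysate was exposed to compound for 15 min at room temperature.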

ERK5 = target: T2, ERK5 (Homo sapiens, UniProt Q13164); assay: Probe-based (AX9989 acyl phosphate ATP probe) kinase profiling in Jurkat lysate: ERK5; conditions: for IC50: Jurkat lysate; for inhibition at 0.1 µM: screening concentration 0.1 μM
T2 construct: screened for activity against several kinases in Jurkat cells; endogenous in cells; host or cells: Jurkat cell lysate
T2 sequence (Q13164 whole entry): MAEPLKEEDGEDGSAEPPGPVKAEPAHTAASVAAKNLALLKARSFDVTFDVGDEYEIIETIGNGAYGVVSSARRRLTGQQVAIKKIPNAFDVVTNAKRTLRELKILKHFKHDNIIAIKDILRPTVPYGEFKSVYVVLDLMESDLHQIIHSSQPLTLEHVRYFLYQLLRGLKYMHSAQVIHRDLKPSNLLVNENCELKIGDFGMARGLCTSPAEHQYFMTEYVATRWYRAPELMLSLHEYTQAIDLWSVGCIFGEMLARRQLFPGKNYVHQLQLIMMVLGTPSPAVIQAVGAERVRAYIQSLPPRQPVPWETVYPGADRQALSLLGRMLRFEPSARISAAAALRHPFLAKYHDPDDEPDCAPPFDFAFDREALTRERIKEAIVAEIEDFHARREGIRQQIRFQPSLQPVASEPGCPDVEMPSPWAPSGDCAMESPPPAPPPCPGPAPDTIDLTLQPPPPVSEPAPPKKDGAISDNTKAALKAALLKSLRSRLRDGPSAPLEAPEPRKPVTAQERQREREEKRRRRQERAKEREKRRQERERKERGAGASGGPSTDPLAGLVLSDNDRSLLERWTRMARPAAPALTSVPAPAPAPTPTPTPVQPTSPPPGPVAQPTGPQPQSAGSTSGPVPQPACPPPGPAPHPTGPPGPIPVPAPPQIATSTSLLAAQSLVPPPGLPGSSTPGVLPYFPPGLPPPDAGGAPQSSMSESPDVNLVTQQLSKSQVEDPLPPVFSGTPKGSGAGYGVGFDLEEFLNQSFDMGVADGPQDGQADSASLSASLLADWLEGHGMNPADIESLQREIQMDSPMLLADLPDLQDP
How it was run: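 ERK5 IC50 values came from percent inhibition at the screening concentration, measured as loss of LC/MS signal of probe-labelled active-site peptides. Compound was added for 15 min at room temperature to Jurkat lysate (5 mg/ml, 20 mM MnCl2) before labelling with AX9989 ATP acyl phosphate probe at 5 μM.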

JAK1 = target: T3, JAK1 (Homo sapiens, UniProt P23458); assay: Probe-based (AX9989) kinase profiling in Jurkat lysate: JAK1; conditions: for inhibition at 0.1 µM: screening concentration 0.1 μM
T3 construct: screened for activity against several kinases in Jurkat cells; endogenous in cells; host or cells: Jurkat cell lysate
T3 sequence (P23458 whole entry): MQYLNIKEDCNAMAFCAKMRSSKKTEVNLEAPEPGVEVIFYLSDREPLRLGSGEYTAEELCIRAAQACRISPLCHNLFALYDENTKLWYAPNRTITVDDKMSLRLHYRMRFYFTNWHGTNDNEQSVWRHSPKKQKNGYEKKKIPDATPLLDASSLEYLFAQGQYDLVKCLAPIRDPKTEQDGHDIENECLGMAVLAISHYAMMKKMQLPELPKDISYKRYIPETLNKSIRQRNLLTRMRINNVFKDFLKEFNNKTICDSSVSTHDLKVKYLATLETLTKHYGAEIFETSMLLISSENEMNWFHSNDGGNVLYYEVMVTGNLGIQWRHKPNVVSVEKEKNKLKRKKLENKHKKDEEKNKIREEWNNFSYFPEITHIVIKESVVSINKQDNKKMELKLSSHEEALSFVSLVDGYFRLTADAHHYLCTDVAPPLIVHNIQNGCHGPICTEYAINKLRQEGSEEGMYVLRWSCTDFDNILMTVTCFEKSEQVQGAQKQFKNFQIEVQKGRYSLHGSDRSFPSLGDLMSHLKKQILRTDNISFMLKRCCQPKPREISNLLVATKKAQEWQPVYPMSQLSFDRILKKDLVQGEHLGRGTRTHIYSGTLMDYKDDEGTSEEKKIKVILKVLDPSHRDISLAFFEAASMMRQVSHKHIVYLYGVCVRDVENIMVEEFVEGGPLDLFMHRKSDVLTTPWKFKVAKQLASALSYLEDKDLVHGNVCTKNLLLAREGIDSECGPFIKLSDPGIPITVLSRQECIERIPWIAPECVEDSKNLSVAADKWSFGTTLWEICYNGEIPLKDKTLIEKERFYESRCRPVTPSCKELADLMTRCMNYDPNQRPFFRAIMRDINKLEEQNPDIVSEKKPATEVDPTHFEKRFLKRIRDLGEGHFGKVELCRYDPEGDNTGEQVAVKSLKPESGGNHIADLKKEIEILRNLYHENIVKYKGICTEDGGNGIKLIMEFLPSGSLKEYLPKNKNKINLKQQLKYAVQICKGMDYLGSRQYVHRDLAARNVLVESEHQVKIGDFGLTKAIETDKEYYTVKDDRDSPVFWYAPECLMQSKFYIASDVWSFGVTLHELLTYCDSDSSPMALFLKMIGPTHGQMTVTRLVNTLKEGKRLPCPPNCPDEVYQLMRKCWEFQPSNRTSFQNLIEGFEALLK
How it was run: as §1

AMPKa1 or AMPKa2 = assay: Probe-based (AX9989) kinase profiling in Jurkat lysate: AMPKa1 or AMPKa2
How it was run: as §1

TAO2 = target: T4, TAO2 (Homo sapiens, UniProt Q9UL54); assay: Probe-based (AX9989) kinase profiling in Jurkat lysate: TAO2; conditions: for inhibition at 0.1 µM: screening concentration 0.1 μM
T4 construct: screened for activity against several kinases in Jurkat cells; endogenous in cells; host or cells: Jurkat cell lysate
T4 sequence (Q9UL54 1-1235): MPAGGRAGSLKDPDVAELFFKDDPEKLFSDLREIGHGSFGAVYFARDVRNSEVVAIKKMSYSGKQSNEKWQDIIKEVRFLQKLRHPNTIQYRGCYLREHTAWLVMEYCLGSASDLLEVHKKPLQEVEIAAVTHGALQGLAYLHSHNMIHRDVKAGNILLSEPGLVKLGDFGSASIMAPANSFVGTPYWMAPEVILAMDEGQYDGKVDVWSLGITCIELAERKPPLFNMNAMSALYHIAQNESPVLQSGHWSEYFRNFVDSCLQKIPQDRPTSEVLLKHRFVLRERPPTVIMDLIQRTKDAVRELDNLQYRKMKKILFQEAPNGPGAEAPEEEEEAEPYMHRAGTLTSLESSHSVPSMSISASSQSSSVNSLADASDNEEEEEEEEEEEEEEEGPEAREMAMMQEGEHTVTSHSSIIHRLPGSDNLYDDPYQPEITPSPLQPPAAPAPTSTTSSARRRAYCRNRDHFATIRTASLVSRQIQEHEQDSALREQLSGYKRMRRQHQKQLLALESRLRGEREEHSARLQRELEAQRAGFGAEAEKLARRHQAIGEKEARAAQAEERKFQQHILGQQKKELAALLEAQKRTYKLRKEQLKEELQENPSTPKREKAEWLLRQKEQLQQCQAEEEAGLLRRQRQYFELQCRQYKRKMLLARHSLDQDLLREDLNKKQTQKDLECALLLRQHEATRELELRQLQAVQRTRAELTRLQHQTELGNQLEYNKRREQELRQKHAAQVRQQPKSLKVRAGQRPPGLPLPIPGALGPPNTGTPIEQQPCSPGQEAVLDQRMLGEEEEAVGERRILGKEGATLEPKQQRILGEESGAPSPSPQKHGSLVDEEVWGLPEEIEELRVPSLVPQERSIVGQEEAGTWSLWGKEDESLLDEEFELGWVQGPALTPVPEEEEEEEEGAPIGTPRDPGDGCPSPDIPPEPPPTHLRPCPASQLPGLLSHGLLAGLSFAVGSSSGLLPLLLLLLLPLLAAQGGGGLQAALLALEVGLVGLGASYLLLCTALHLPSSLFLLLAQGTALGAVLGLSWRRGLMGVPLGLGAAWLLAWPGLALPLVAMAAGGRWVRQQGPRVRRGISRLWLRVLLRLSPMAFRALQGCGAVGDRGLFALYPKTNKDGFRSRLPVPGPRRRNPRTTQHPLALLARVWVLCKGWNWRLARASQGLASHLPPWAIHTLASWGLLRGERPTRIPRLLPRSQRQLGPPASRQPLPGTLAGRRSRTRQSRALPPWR
How it was run: as §1

ABL or ARG = assay: Probe-based (AX9989) kinase profiling in Jurkat lysate: ABL or ARG
How it was run: as §1

[1] = screening concentration 1.0 μM, read-out: Kinase inhibition % at indicated screening concentration: AurA
[2] = calculated from percent inhibition of AX9989 labeling and the screening concentration
[3] = screening concentration 1.0 μM, read-out: Kinase inhibition % at indicated screening concentration: ERK5
[4] = screening concentration 1.0 μM, read-out: Kinase inhibition % at indicated screening concentration: JAK1
[5] = screening concentration 1.0 μM, read-out: Kinase inhibition % at indicated screening concentration: TAO2
[6] = read-out: Kinase inhibition % at indicated screening concentration: AurA
[7] = read-out: Kinase inhibition % at indicated screening concentration: ERK5
[8] = read-out: Kinase inhibition % at indicated screening concentration: JAK1
[9] = read-out: Kinase inhibition % at indicated screening concentration: TAO2
[10] = calculated from percent inhibition and screening concentration, AX9989 probe

SMILES: CCOc1cc(C(=O)NCCOC)ccc1Nc1cc2c(cn1)N(C)C(=O)c1ccccc1N2C [Compound 83]
- inhibition at 1 µM (AurA; [1]): ≤ 35%
- IC50 (ERK5; [2]): 101 to 500 nM
- inhibition at 1 µM (ERK5; [3]): 75 to 90%
- inhibition at 1 µM (JAK1; [4]): ≤ 35%
- Kinase inhibition % at indicated screening concentration: AMPKa1 or AMPKa2 (AMPKa1 or AMPKa2; screening concentration 1.0 μM): E (E is ≦35%)
- inhibition at 1 µM (TAO2; [5]): ≤ 35%
- Kinase inhibition % at indicated screening concentration: ABL or ARG (ABL or ARG; screening concentration 1.0 μM): E (E is ≦35%)

SMILES: CCOc1cc(C(=O)NCCN(CC)CC)ccc1Nc1cc2c(cn1)N(C)C(=O)c1ccccc1N2C [Compound 103]
- inhibition at 0.1 µM (AurA; [6]): ≤ 35%
- IC50 (ERK5; [2]): ≤ 50 nM
- inhibition at 0.1 µM (ERK5; [7]): > 90%
- inhibition at 0.1 µM (JAK1; [8]): ≤ 35%
- Kinase inhibition % at indicated screening concentration: AMPKa1 or AMPKa2 (AMPKa1 or AMPKa2; screening concentration 0.1 μM): E (E is ≦35%)
- inhibition at 0.1 µM (TAO2; [9]): ≤ 35%
- Kinase inhibition % at indicated screening concentration: ABL or ARG (ABL or ARG; screening concentration 0.1 μM): E (E is ≦35%)

SMILES: CCOc1cc(C(=O)N(C)CCN(C)C)ccc1Nc1cc2c(cn1)N(C)C(=O)c1ccccc1N2C [Compound 88]
- inhibition at 0.1 µM (AurA; [6]): ≤ 35%
- IC50 (ERK5; [2]): ≤ 50 nM
- inhibition at 0.1 µM (ERK5; [7]): > 90%
- inhibition at 0.1 µM (JAK1; [8]): ≤ 35%
- Kinase inhibition % at indicated screening concentration: AMPKa1 or AMPKa2 (AMPKa1 or AMPKa2; screening concentration 0.1 μM): E (E is ≦35%)
- inhibition at 0.1 µM (TAO2; [9]): ≤ 35%
- Kinase inhibition % at indicated screening concentration: ABL or ARG (ABL or ARG; screening concentration 0.1 μM): E (E is ≦35%)

SMILES: CCOc1cc(C(=O)NCCN2CCCC2)ccc1Nc1cc2c(cn1)N(C)C(=O)c1ccccc1N2C [Compound 105]
- inhibition at 1 µM (AurA; [1]): ≤ 35%
- IC50 (ERK5; [2]): 101 to 500 nM
- inhibition at 1 µM (ERK5; [3]): 75 to 90%
- inhibition at 1 µM (JAK1; [4]): ≤ 35%
- Kinase inhibition % at indicated screening concentration: AMPKa1 or AMPKa2 (AMPKa1 or AMPKa2; screening concentration 1.0 μM): E (E is ≦35%)
- inhibition at 1 µM (TAO2; [5]): ≤ 35%
- Kinase inhibition % at indicated screening concentration: ABL or ARG (ABL or ARG; screening concentration 1.0 μM): E (E is ≦35%)

SMILES: CCOc1cc(C(=O)N2CCC[C@H](O)C2)ccc1Nc1cc2c(cn1)N(C)C(=O)c1ccccc1N2C [Compound 96]
- inhibition at 0.1 µM (AurA; [6]): ≤ 35%
- IC50 (ERK5; [2]): ≤ 50 nM
- inhibition at 0.1 µM (ERK5; [7]): > 90%
- inhibition at 0.1 µM (JAK1; [8]): ≤ 35%
- Kinase inhibition % at indicated screening concentration: AMPKa1 or AMPKa2 (AMPKa1 or AMPKa2; screening concentration 0.1 μM): E (E is ≦35%)
- inhibition at 0.1 µM (TAO2; [9]): ≤ 35%
- Kinase inhibition % at indicated screening concentration: ABL or ARG (ABL or ARG; screening concentration 0.1 μM): E (E is ≦35%)

Further lines, results first:

- inhibition at 10 µM (AurA; screening concentration 10 μM, read-out: AurA Inhibition % at indicated screening concentration): ≤ 35%
- IC50 (ERK5; [10]): 101 to 500 nM
- inhibition at 10 µM (ERK5; screening concentration 10 μM, read-out: ERK5 Inhibition % at indicated screening concentration): > 90%
- inhibition at 10 µM (JAK1; screening concentration 10 μM, read-out: JAK1 Inhibition % at indicated screening concentration): ≤ 35%
- AMPKa1 or AMPKa2 Inhibition % at indicated screening concentration (AMPKa1 or AMPKa2; screening concentration 10 μM): E (E is ≦35%)
- inhibition at 10 µM (TAO2; screening concentration 10 μM, read-out: TAO2 Inhibition % at indicated screening concentration): ≤ 35%
- ABL or ARG Inhibition % at indicated screening concentration (ABL or ARG; screening concentration 10 μM): E (E is ≦35%)
SMILES: C[C@@H]1C[C@H](Nc2cc3c(cn2)N(C)C(=O)c2ccccc2N3C)CC[C@H]1O [Compound T115]

- inhibition at 1 µM (AurA; screening concentration 1 μM, read-out: AurA Inhibition % at indicated screening concentration): ≤ 35%
- IC50 (ERK5; [10]): 50 to 100 nM
- inhibition at 1 µM (ERK5; screening concentration 1 μM, read-out: ERK5 Inhibition % at indicated screening concentration): > 90%
- inhibition at 1 µM (JAK1; screening concentration 1 μM, read-out: JAK1 Inhibition % at indicated screening concentration): ≤ 35%
- AMPKa1 or AMPKa2 Inhibition % at indicated screening concentration (AMPKa1 or AMPKa2; screening concentration 1 μM): E (E is ≦35%)
- inhibition at 1 µM (TAO2; screening concentration 1 μM, read-out: TAO2 Inhibition % at indicated screening concentration): ≤ 35%
- ABL or ARG Inhibition % at indicated screening concentration (ABL or ARG; screening concentration 1 μM): E (E is ≦35%)
SMILES: CCOc1cc(C(=O)N(C)[C@H]2CC[C@H](O)CC2)ccc1Nc1cc2c(cn1)N(C)C(=O)c1ccccc1N2C [Compound T64]
